Structures can show the parent of a compound that is named as a salt.
How the values were obtained:
[1] = MTT cell viability (cytotoxicity) assay; assay type: cell-based; details: human, HCT116 cells
Procedure: (§1) All the derivatives were evaluated for their ability to induce ARE in HepG2-ARE-C8 cell (HepG2 cells stably transfected with a luciferase reporter) by ARE luciferase reporter assay, and they were compared to the lead compound 2. At the same time, cytotoxicity studies were performed by the MTT assay against the HCT116 cells. The results of cytotoxic activity in vitro were expressed as the IC50 [18]. Because those compounds were designed for chemoprevention, they should not be cytotoxic.
Cell viabilities were determined by using 3-[4,5-dimethylthiazol-2-yl]-2,5-diphenyltetrazolium bromide (MTT) assay. MTT was dissolved in (phosphate buffered solution) PBS to a concentration of 5 mg/mL. HCT116 cells (8 × 10^3 cells/well) were plated in 96-well plates and incubated overnight. Different concentrations of test compounds were added to each cell for 24 h at 37 °C, and the 20 μL MTT solution was added and incubated for an additional 4 h. Then, 100 μL of DMSO was added to dissolve formazan precipitate after the solution was removed. The OD value was determined at 570 nm by Elx800 absorbance microplate reader (BioTek, Winooski, VT, USA). IC50 value (concentration at which cell survival equals 50% of control) = […].

[2] = system: antioxidant response element (ARE); test: ARE luciferase reporter assay in HepG2-ARE-C8 cells; assay type: cell-based; details: HepG2-ARE-C8, 12 h of treatment, mean ± SD n = 3, read-out: ARE Inductivity in Luciferase Reporter Assay (induction fold)
Procedure: as §1
HepG2-ARE-C8 cells (4 × 10^4 cells/well) were incubated overnight in 96-well plates, and then treated with different concentrations of test compounds. tBHQ was used as a positive control, DMSO was used as a negative control, and the luciferase cell culture lysis reagent was used as a blank. The medium was removed after 12 h treatment. Then, the cells were harvested in the luciferase cell culture lysis reagent together with 100 μL of cold PBS. Then, centrifuging the solution and 20 μL of the supernatant was used for determining the luciferase activity. The luciferase activity was measured by a Luminoskan Ascent (Thermo Scientific, Waltham, MA, USA). The data were obtained in triplicate and expressed as fold induction over the control. Induction fold = (RLUtest − RLUblank)/(RLUDMSOcontrol − RLUblank). RLU = relative light unit l.

melting point [°C]	SMILES	IC50 at 24 h [1] [µM]	fold induction at 0.1 µM [2]	fold induction at 1 µM [2]	fold induction at 5 µM [2]	fold induction at 10 µM [2]	fold induction at 50 µM [2]	fold induction at 100 µM [2]
206 to 208	Nc1cccc(C(=O)C=C2NCC3c4ccccc4CCN3C2=O)c1 (centres unmarked) [Compound 1a, 3-(2-(3-aminophenyl)-2-oxoethylidene)-1,2,3,6,7,11b-hexahydro-4H-pyrazino[2,1-a]isoquinolin-4-one]	> 300	0.56 ± 0.28	1.66 ± 0.05	2.4 ± 1.18	5.64 ± 2.06	7.53 ± 1.28	7.62 ± 2.79
238 to 240	Nc1ccc(C(=O)C=C2NCC3c4ccccc4CCN3C2=O)cc1 (centres unmarked) [Compound 1b, 3-(2-(4-aminophenyl)-2-oxoethylidene)-1,2,3,6,7,11b-hexahydro-4H-pyrazino[2,1-a]isoquinolin-4-one]	> 300	1.26 ± 0.28	1.26 ± 0.73	2.78 ± 0.29	3.45 ± 0.03	2.75 ± 0.68	2.68 ± 0.31
247 to 249	CC(=O)Nc1cccc(C(=O)C=C2NCC3c4ccccc4CCN3C2=O)c1 (centres unmarked) [Compound 1c, N-(3-(2-(4-oxo-1,6,7,11b-tetrahydro-2H-pyrazino[2,1-a]isoquinolin-3(4H)-ylidene)acetyl)phenyl)acetamide]	> 300	0.8 ± 0.19	0.78 ± 0.36	2.3 ± 0.39	3.05 ± 0.53	3.09 ± 0.09	3.41 ± 0.65
279 to 281	CC(=O)Nc1ccc(C(=O)C=C2NCC3c4ccccc4CCN3C2=O)cc1 (centres unmarked) [Compound 1d, N-(4-(2-(4-oxo-1,6,7,11b-tetrahydro-2H-pyrazino[2,1-a]isoquinolin-3(4H)-ylidene)acetyl)phenyl)acetamide]	> 300	1.24 ± 0.23	1.09 ± 0.72	1.49 ± 0.16	2.94 ± 1.9	7.14 ± 0.34	10.07 ± 0.05
158 to 160	CCCC(=O)C=C1NCC2c3ccccc3CCN2C1=O (centres unmarked) [Compound 2a, 3-(2-oxopentylidene)-1,2,3,6,7,11b-hexahydro-4H-pyrazino[2,1-a]isoquinolin-4-one]	> 300	2.38 ± 0.11	2.28 ± 0.78	2.55 ± 0.31	3.09 ± 1.09	6.74 ± 0.67	19.6 ± 0.47
173 to 175	O=C(C=C1NCC2c3ccccc3CCN2C1=O)C1CC1 (centres unmarked) [Compound 2b, 3-(2-cyclopropyl-2-oxoethylidene)-1,2,3,6,7,11b-hexahydro-4H-pyrazino[2,1-a]isoquinolin-4-one]	> 300	3.71 ± 1.41	3.57 ± 1.08	4.85 ± 0.82	6.58 ± 2	8.24 ± 0.62	12.9 ± 1.73
185 to 187	O=C(C=C1NCC2c3ccccc3CCN2C1=O)C1CCCC1 (centres unmarked) [Compound 2d, 3-(2-cyclopentyl-2-oxoethylidene)-1,2,3,6,7,11b-hexahydro-4H-pyrazino[2,1-a]isoquinolin-4-one]	161	1.06 ± 0.09	3.19 ± 0.52	4.06 ± 0.3	7.38 ± 0.31	5.22 ± 1.28	5.83 ± 0.38
203 to 205	O=C(C=C1NCC2c3ccccc3CCN2C1=O)C1CCCCC1 (centres unmarked) [Compound 2e, 3-(2-cyclohexyl-2-oxoethylidene)-1,2,3,6,7,11b-hexahydro-4H-pyrazino[2,1-a]isoquinolin-4-one]	> 300	1.92 ± 0.82	2.17 ± 1.05	3.03 ± 0.68	3.49 ± 0.64	3.92 ± 0.53	8.31 ± 0.25
180 to 182	O=C(C=C1NCC2c3ccccc3CCN2C1=O)C1=CCCCC1 (centres unmarked) [Compound 2f, 3-(2-(cyclohex-1-en-1-yl)-2-oxoethylidene)-1,2,3,6,7,11b-hexahydro-4H-pyrazino[2,1-a]isoquinolin-4-one]	171	3.27 ± 1.59	2.1 ± 0.59	5.46 ± 1.83	8.45 ± 1.05	3.34 ± 1.05	3.07 ± 0.43
270 to 272	O=C(C=C1NCC2c3ccccc3CCN2C1=O)c1c[nH]c2ccccc12 (centres unmarked) [Compound 2g, 3-(2-(1H-indol-3-yl)-2-oxoethylidene)-1,2,3,6,7,11b-hexahydro-4H-pyrazino[2,1-a]isoquinolin-4-one]	> 300	1.27 ± 0.52	2.31 ± 0.24	4.68 ± 0.29	5.84 ± 0.07	14.5 ± 0.36	9.69 ± 0.8
245 to 247	O=C(C=C1NCC2c3ccccc3CCN2C1=O)c1cnc2ccccc2c1 (centres unmarked) [Compound 2h, 3-(2-oxo-2-(quinolin-3-yl)ethylidene)-1,2,3,6,7,11b-hexahydro-4H-pyrazino[2,1-a]isoquinolin-4-one]	92.4	2.06 ± 0.98	3.4 ± 0.02	3.62 ± 0.29	4.59 ± 0.14	4.38 ± 1.94	4.98 ± 0.53
235 to 237	O=C(C=C1NCC2c3ccccc3CCN2C1=O)c1ccc(N2CCOCC2)cc1 (centres unmarked) [Compound 2i, 3-(2-(4-morpholinophenyl)-2-oxoethylidene)-1,2,3,6,7,11b-hexahydro-4H-pyrazino[2,1-a]isoquinolin-4-one]	237	1.71 ± 0.71	1.88 ± 1.36	1.37 ± 0.19	1.66 ± 0.53	1.16 ± 0.63	1.42 ± 0.31
157 to 159	O=C(C=C1NCC2CCCCN2C1=O)c1cccc(Cl)c1 (centres unmarked) [Compound 3c, 3-(2-(3-chlorophenyl)-2-oxoethylidene)octahydro-4H-pyrido[1,2-a]pyrazin-4-one]	174	1.85 ± 0.21	8.41 ± 0.04	10.2 ± 3.44	11.4 ± 1.12	1.13 ± 1.03	1.33 ± 0.19
174 to 176	O=C(C=C1NCC2CCCCN2C1=O)c1cccc([N+](=O)[O-])c1 (centres unmarked) [Compound 3d, 3-(2-(3-nitrophenyl)-2-oxoethylidene)octahydro-4H-pyrido[1,2-a]pyrazin-4-one]	181	1.96 ± 0.88	3.85 ± 1	12 ± 2.55	19.5 ± 3.09	47.6 ± 3.54	8.66 ± 3.27
133 to 135	COc1cccc(C(=O)C=C2NCC3CCCCN3C2=O)c1 (centres unmarked) [Compound 3e, 3-(2-(3-methoxyphenyl)-2-oxoethylidene)octahydro-4H-pyrido[1,2-a]pyrazin-4-one]	> 300	1.4 ± 1.21	1.82 ± 1.15	6.59 ± 0.77	9.16 ± 0.42	9.36 ± 3.76	1.44 ± 1.75
197 to 199	O=C(C=C1NCC2CCCCN2C1=O)c1ccc(-c2ccccc2)cc1 (centres unmarked) [Compound 3f, 3-(2-([1,1′-biphenyl]-4-yl)-2-oxoethylidene)octahydro-4H-pyrido[1,2-a]pyrazin-4-one]	184	2.96 ± 0.66	2.21 ± 0.52	3.6 ± 0.42	1.76 ± 0.1	2.47 ± 0.03	2.69 ± 2.75
–	COC(=O)/C=C/C(=O)OC [DMF, Dimethyl fumarate, reference compound]	–	1.04 ± 0.21	1.1 ± 0.11	1.4 ± 0.21	2.06 ± 0.25	3.34 ± 0.52	5.31 ± 0.24

From publication PMC6151508, “Development of Novel Nrf2/ARE Inducers Bearing Pyrazino[2,1-a]isoquinolin Scaffold with Potent In Vitro Efficacy and Enhanced Physicochemical Properties” (Molecules : A Journal of Synthetic Chemistry and Natural …, 2017)
